Reference: patent publication US20210122730A1, “GLUCOCORTICOID RECEPTOR MODULATORS” (ORIC Pharmaceuticals, Inc., priority 2017, published 2021)

Assays:
CYP2C8 = target: T1, CYP2C8 (Homo sapiens, UniProt P10632); test: CYP Inhibition Assay (CYP2C8, human liver microsomes, paclitaxel substrate); format: in vitro ADME; conditions: pH 7.4; pooled human liver microsomes 0.1 mg/mL, probe substrate paclitaxel
T1 construct: Pooled human microsomes were obtained from Sekisui XenoTech, KS; tissue Sekisui XenoTech, KS; host or cells: pooled human liver microsomes
T1 sequence (P10632 1-490): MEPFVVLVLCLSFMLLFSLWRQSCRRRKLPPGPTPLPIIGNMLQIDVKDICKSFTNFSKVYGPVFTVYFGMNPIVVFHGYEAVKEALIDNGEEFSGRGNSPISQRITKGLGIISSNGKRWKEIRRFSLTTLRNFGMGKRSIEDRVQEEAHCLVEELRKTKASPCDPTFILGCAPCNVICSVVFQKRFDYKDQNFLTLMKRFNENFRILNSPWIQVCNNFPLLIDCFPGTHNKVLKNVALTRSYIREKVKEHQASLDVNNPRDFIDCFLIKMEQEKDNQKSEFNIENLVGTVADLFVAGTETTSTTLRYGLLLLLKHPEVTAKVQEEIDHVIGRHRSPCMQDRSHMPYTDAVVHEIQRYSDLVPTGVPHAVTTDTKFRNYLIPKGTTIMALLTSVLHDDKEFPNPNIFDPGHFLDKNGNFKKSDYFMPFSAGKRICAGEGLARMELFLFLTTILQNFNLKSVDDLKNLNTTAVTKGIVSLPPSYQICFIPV
Method in brief: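 Pooled human liver microsomes (0.1 mg/mL) in 50 mM potassium phosphate pH 7.4 with compound, started with 1 mM NADPH, 5 min at 37° C, duplicate.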

GR = target: T2, GR (Homo sapiens, UniProt P04150); test: In Vitro GR Luciferase Reporter Assay (antagonist mode, CHO-K1-GR-MMTV-Luc reporter cells); format: cell-based; conditions: antagonist mode, 10 nM Dexamethasone
T2 construct: expressed in transfected cells; host or cells: CHO-K1
T2 sequence (P04150 1-777): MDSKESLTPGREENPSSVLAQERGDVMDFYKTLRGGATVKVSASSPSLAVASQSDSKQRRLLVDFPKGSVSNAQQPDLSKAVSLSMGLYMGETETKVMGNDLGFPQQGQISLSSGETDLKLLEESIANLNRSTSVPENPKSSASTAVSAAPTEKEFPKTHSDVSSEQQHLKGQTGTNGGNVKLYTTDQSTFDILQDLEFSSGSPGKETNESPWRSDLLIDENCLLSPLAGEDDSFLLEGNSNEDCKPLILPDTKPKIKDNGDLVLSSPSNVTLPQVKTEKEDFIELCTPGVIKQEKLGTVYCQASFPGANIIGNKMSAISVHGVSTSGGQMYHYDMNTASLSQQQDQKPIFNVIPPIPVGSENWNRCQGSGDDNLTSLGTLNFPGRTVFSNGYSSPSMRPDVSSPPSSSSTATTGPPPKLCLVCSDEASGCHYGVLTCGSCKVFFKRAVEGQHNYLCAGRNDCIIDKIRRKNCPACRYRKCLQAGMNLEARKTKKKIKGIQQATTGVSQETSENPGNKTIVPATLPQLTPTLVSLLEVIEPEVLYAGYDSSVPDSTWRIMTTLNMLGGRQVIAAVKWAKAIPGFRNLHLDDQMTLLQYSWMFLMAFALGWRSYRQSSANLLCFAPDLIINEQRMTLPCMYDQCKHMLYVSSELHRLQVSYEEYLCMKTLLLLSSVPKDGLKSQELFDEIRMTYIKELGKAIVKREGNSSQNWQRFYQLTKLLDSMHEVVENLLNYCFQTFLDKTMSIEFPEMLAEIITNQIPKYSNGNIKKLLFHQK
Method in brief: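 CHO-K1-GR-MMTV-Luc cells in phenol red-free DMEM with 10% CSS, stimulated with 10 nM dexamethasone (final) and treated with 8-point 1:5 compound dilutions for about 18-24 h at 37° C. Luciferase measured by OneGlo luminescence; IC50 derived for inhibition of GR activity.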

| inhibition at 5 min (CYP2C8) [%] | IC50 (GR) [nM] | SMILES |
| --- | --- | --- |
| 25 to 50 | ≤ 100 | Cn1cc(S(=O)(=O)N(CC(C)(C)O)[C@H]2CCC3=Cc4c(cnn4-c4ccc(F)cc4)C[C@]3(C(=O)c3cc(Cl)ccn3)C2)cn1 [Example 246, N-((4aS,6S)-4a-(4-chloropicolinoyl)-1-(4-fluorophenyl)-4,4a,5,6,7,8-hexahydro-1H-benzo[f]indazol-6-yl)-N-(2-hydroxy-2-methylpropyl)-1-methyl-1H-pyrazole-4-sulfonamide] |
| 50 to 75 | ≤ 100 | O=C(c1cc(C(F)F)ccn1)[C@]12Cc3cnn(-c4ccc(F)cc4)c3C=C1CC[C@H](N(C1CC1)S(=O)(=O)c1ccc(F)cc1)C2 [Example 247, N-cyclopropyl-N-((4aS,6S)-4a-(4-(difluoromethyl)picolinoyl)-1-(4-fluorophenyl)-4,4a,5,6,7,8-hexahydro-1H-benzo[f]indazol-6-yl)-4-fluorobenzenesulfonamide] |
| 50 to 75 | ≤ 100 | Cn1cc(S(=O)(=O)N(CC(F)(F)F)[C@H]2CCC3=Cc4c(cnn4-c4ccc(F)cc4)C[C@]3(C(=O)c3ncc(C(F)(F)F)s3)C2)cn1 [Example 250, N-((4aS,6S)-1-(4-fluorophenyl)-4a-(5-(trifluoromethyl)thiazole-2-carbonyl)-4,4a,5,6,7,8-hexahydro-1H-benzo[f]indazol-6-yl)-1-methyl-N-(2,2,2-trifluoroethyl)-1H-pyrazole-4-sulfonamide] |
| 50 to 75 | ≤ 100 | Cn1ccc(S(=O)(=O)N(CC2(O)CC2)[C@H]2CCC3=Cc4c(cnn4-c4ccc(F)cc4)C[C@]3(C(=O)c3ncc(C(F)(F)F)s3)C2)n1 [Example 251, N-((4aS,6S)-1-(4-fluorophenyl)-4a-(5-(trifluoromethyl)thiazole-2-carbonyl)-4,4a,5,6,7,8-hexahydro-1H-benzo[f]indazol-6-yl)-N-((1-hydroxycyclopropyl)methyl)-1-methyl-1H-pyrazole-3-sulfonamide] |
| 50 to 75 | ≤ 100 | O=C(c1cc(F)ccn1)[C@]12Cc3cnn(-c4ccc(F)cc4)c3C=C1CC[C@H](N(CC1(O)CC1)S(=O)(=O)c1ccc(F)cc1)C2 [Example 254, 4-fluoro-N-((4aS,6S)-1-(4-fluorophenyl)-4a-(4-fluoropicolinoyl)-4,4a,5,6,7,8-hexahydro-1H-benzo[f]indazol-6-yl)-N-((1-hydroxycyclopropyl)methyl) benzenesulfonamide] |
| 50 to 75 | ≤ 100 | Cn1ccc(S(=O)(=O)N(CC2(O)CC2)[C@H]2CCC3=Cc4c(cnn4-c4ccc(F)cc4)C[C@]3(C(=O)c3cc(F)ccn3)C2)n1 [Example 255, N-((4aS,6S)-1-(4-fluorophenyl)-4a-(4-fluoropicolinoyl)-4,4a,5,6,7,8-hexahydro-1H-benzo[f]indazol-6-yl)-N-((1-hydroxycyclopropyl)methyl)-1-methyl-1H-pyrazole-3-sulfonamide] |
| 50 to 75 | ≤ 100 | Cn1ccc(S(=O)(=O)N(CC2(O)CC2)[C@H]2CCC3=Cc4c(cnn4-c4ccc(F)cc4)C[C@]3(C(=O)c3cc(Cl)ccn3)C2)n1 [Example 257, N-((4aS,6S)-4a-(4-chloropicolinoyl)-1-(4-fluorophenyl)-4,4a,5,6,7,8-hexahydro-1H-benzo[f]indazol-6-yl)-N-((1-hydroxycyclopropyl)methyl)-1-methyl-1H-pyrazole-3-sulfonamide] |
| 50 to 75 | ≤ 100 | Cn1ccc(S(=O)(=O)N(C2CC2)[C@H]2CCC3=Cc4c(cnn4-c4ccc(F)cc4)C[C@]3(C(=O)c3cc(C(F)F)ccn3)C2)n1 [Example 258, N-cyclopropyl-N-((4aS,6S)-4a-(4-(difluoromethyl)picolinoyl)-1-(4-fluorophenyl)-4,4a,5,6,7,8-hexahydro-1H-benzo[f]indazol-6-yl)-1-methyl-1H-pyrazole-3-sulfonamide] |
| 25 to 50 | ≤ 100 | Cn1ccc(S(=O)(=O)N(C2CC2)[C@H]2CCC3=Cc4c(cnn4-c4ccc(F)cc4)C[C@]3(C(=O)c3ncc(Cl)cn3)C2)n1 [Example 259, N-((4aS,6S)-4a-(5-chloropyrimidine-2-carbonyl)-1-(4-fluorophenyl)-4,4a,5,6,7,8-hexahydro-1H-benzo[f]indazol-6-yl)-N-cyclopropyl-1-methyl-1H-pyrazole-3-sulfonamide] |
| 50 to 75 | ≤ 100 | Cn1cc(S(=O)(=O)N(CC(F)(F)F)[C@H]2CCC3=Cc4c(cnn4-c4ccc(F)cc4)C[C@]3(C(=O)c3cc(F)ccn3)C2)cn1 [Example 260, N-((4aS,6S)-1-(4-fluorophenyl)-4a-(4-fluoropicolinoyl)-4,4a,5,6,7,8-hexahydro-1H-benzo[f]indazol-6-yl)-1-methyl-N-(2,2,2-trifluoroethyl)-1H-pyrazole-4-sulfonamide] |
| 50 to 75 | ≤ 100 | Cn1ccnc1S(=O)(=O)N(C1CC1)[C@H]1CCC2=Cc3c(cnn3-c3ccc(F)cc3)C[C@]2(C(=O)c2cc(C(F)(F)F)ccn2)C1 [Example 261, N-cyclopropyl-N-((4aS,6S)-1-(4-fluorophenyl)-4a-(4-(trifluoromethyl)picolinoyl)-4,4a,5,6,7,8-hexahydro-1H-benzo[f]indazol-6-yl)-1-methyl-1H-imidazole-2-sulfonamide] |
| 50 to 75 | ≤ 100 | Cn1ncc(S(=O)(=O)N(C2CC2)[C@H]2CCC3=Cc4c(cnn4-c4ccc(F)cc4)C[C@]3(C(=O)c3cc(Cl)ccn3)C2)n1 [Example 262, N-((4aS,6S)-4a-(4-chloropicolinoyl)-1-(4-fluorophenyl)-4,4a,5,6,7,8-hexahydro-1H-benzo[f]indazol-6-yl)-N-cyclopropyl-2-methyl-2H-1,2,3-triazole-4-sulfonamide] |
| 75 to 90 | ≤ 100 | Cn1ncc(S(=O)(=O)N(C2CC2)[C@H]2CCC3=Cc4c(cnn4-c4ccc(F)cc4)C[C@]3(C(=O)c3cc(F)ccn3)C2)n1 [Example 263, N-cyclopropyl-N-((4aS,6S)-1-(4-fluorophenyl)-4a-(4-fluoropicolinoyl)-4,4a,5,6,7,8-hexahydro-1H-benzo[f]indazol-6-yl)-2-methyl-2H-1,2,3-triazole-4-sulfonamide] |
| 50 to 75 | ≤ 100 | Cn1cc(S(=O)(=O)N(C2CC2)[C@H]2CCC3=Cc4c(cnn4-c4ccc(F)cc4)C[C@]3(C(=O)c3cc(F)ccn3)C2)nn1 [Example 265, N-cyclopropyl-N-((4aS,6S)-1-(4-fluorophenyl)-4a-(4-fluoropicolinoyl)-4,4a,5,6,7,8-hexahydro-1H-benzo[f]indazol-6-yl)-1-methyl-1H-1,2,3-triazole-4-sulfonamide] |
| 75 to 90 | ≤ 100 | Cn1ccnc1S(=O)(=O)N(C1CC1)[C@H]1CCC2=Cc3c(cnn3-c3ccc(F)cc3)C[C@]2(C(=O)c2ncc(C(F)(F)F)s2)C1 [Example 266, N-cyclopropyl-N-((4aS,6S)-1-(4-fluorophenyl)-4a-(5 (trifluoromethyl)thiazole-2-carbonyl)-4,4a,5,6,7,8-hexahydro-1H-benzo[f]indazol-6-yl)-1-methyl-1H-imidazole-2-sulfonamide] |
| 50 to 75 | ≤ 100 | Cn1ccc(S(=O)(=O)N(C2CC(F)(F)C2)[C@H]2CCC3=Cc4c(cnn4-c4ccc(F)cc4)C[C@]3(C(=O)c3cc(F)ccn3)C2)n1 [Example 267, N-(3,3-difluorocyclobutyl)-N-((4aS,6S)-1-(4-fluorophenyl)-4a-(4-fluoropicolinoyl)-4,4a,5,6,7,8-hexahydro-1H-benzo[f]indazol-6-yl)-1-methyl-1H-pyrazole-3-sulfonamide] |
